Test results: US20110251286A1, “Crystalline salts and/or co-crystals of O-desmethyltramadol” (GRUENENTHAL GmbH, priority 2010, published 2011)

Experiments:
[1] = Release in artificial intestinal juice; type: physicochemical; settings: for release rate compared to the hydrochloride salt: in artificial intestinal juice
Description: Investigations on release were carried out in a Sotax AT7 smart release apparatus with UV measurement (Perkin Elmer photometer).
A vessel with Wood apparatus was used (for intrinsic release).
A pressing of 0.5 cm^2 surface area (diameter 8 mm) was produced with a force of 200 N using approximately 100 mg of active ingredient.
Release was carried out in a release medium, which is composed as described below: • Intestinal juice without pancreas powder, pH 6.8 (analogous to Ph. Eur.); 250.0 ml 6.8 g of potassium dihydrogenphosphate R+0.896 g of NaOH+water to 1000.0 ml.
Release was carried out in a release volume of in each case 500±5 ml at a temperature of the release medium of 37±1° C. with a stirring speed of 100±5 rpm.
The content determination was carried out by means of spectroscopic methods (UV spectroscopy, wavelength: 271 nm, cuvette: 10 mm). Sample taking was carried out manually.
In this release experiment, the individual compounds were placed in a permeable bag in an amount in each case calculated on 100 mg of the free base.
The results, expressed in percent of the substance released, are reproduced in the following tables. In this case, the compounds denote: HCl: hydrochloride; A: cinnamate; B: palmitate; C: decanoate; E: hemi-fumarate and F: hemi-sebacate.

[2] = Dynamic vapor sorption (DVS): sorption and desorption of moisture; type: physicochemical
Description: Investigations on the sorption and desorption of moisture (dynamic vapor sorption, DVS): DVS measurements were carried out on an apparatus of the type DVS 1000 from Porotec. The evaluation of the measurements was carried out using software from Surface Measurement Systems. At a temperature between 23° C. and 26° C., starting from a relative humidity of 50%, within 240 minutes the relative humidity first increased to 90% and then fell to 0%. This cycle was repeated a second time. The DVS charts shown are isothermal recordings (plots) of the change in the mass in % (change in mass—dry) as a function of the desired relative humidity in % (target RH). Correspondingly, the axes of the graphs are marked by ΔM [%] and RH [%]. The measurement curves of the first sorption are designated by 1-S, the subsequent first desorption by 1-D, the second sorption by 2-S and the second desorption by 2-D. Advantageously, mass changes between the sorption and desorption phase are as low as possible.

[3] = Determination of equilibrium solubilities in aqueous solutions at various pHs; settings: thermodynamic from solid
Description: The equilibrium solubilities of the compounds investigated were determined in aqueous solutions at various pHs and the pH-dependent solubility profile and the solubilities at different pHs were compared here. In this case, the content determination was carried out by means of capillary electrophoresis.

Molecule: CN(C)CC1CCCCC1(O)c1cccc(O)c1.CN(C)CC1CCCCC1(O)c1cccc(O)c1.O=C(O)CCCCCCCCC(=O)O (stereo not drawn) [hemi-sebacate]
- release rate compared to the hydrochloride salt [1]: decreased release rates compared to the hydrochloride salt
- ΔM Desorption ([2]; DVS 1st cycle, RH 0.0%): 0.0000%
- ΔM Desorption ([2]; DVS 1st cycle, RH 10.0%): 0.0235%
- ΔM Desorption ([2]; DVS 1st cycle, RH 20.0%): 0.0308%
- ΔM Desorption ([2]; DVS 1st cycle, RH 30.0%): 0.0323%
- ΔM Desorption ([2]; DVS 1st cycle, RH 40.0%): 0.0338%
- ΔM Desorption ([2]; DVS 1st cycle, RH 50.0%): 0.0323%
- ΔM Hysteresis ([2]; DVS 1st cycle, RH 50.0%): −0.0382%
- ΔM Sorption ([2]; DVS 1st cycle, RH 50.0%): 0.0704%
- ΔM Desorption ([2]; DVS 1st cycle, RH 60.0%): 0.0293%
- ΔM Hysteresis ([2]; DVS 1st cycle, RH 60.0%): −0.0396%
- ΔM Sorption ([2]; DVS 1st cycle, RH 60.0%): 0.0690%
- ΔM Desorption ([2]; DVS 1st cycle, RH 70.0%): 0.0220%
- ΔM Hysteresis ([2]; DVS 1st cycle, RH 70.0%): −0.0132%
- ΔM Sorption ([2]; DVS 1st cycle, RH 70.0%): 0.0352%
- ΔM Desorption ([2]; DVS 1st cycle, RH 80.0%): 0.0088%
- ΔM Hysteresis ([2]; DVS 1st cycle, RH 80.0%): 0.0205%
- ΔM Sorption ([2]; DVS 1st cycle, RH 80.0%): −0.0117%
- ΔM Desorption ([2]; DVS 1st cycle, RH 90.0%): −0.0499%
- ΔM Sorption ([2]; DVS 1st cycle, RH 90.0%): −0.0499%
- ΔM Desorption ([2]; DVS 2nd cycle, RH 0.0%): 0.1585%
- ΔM Sorption ([2]; DVS 2nd cycle, RH 0.0%): 0.0000%
- ΔM Desorption ([2]; DVS 2nd cycle, RH 10.0%): 0.1790%
- ΔM Hysteresis ([2]; DVS 2nd cycle, RH 10.0%): 0.1438%
- ΔM Sorption ([2]; DVS 2nd cycle, RH 10.0%): 0.0352%
- ΔM Desorption ([2]; DVS 2nd cycle, RH 20.0%): 0.1834%
- ΔM Hysteresis ([2]; DVS 2nd cycle, RH 20.0%): 0.1291%
- ΔM Sorption ([2]; DVS 2nd cycle, RH 20.0%): 0.0543%
- ΔM Desorption ([2]; DVS 2nd cycle, RH 30.0%): 0.1878%
- ΔM Hysteresis ([2]; DVS 2nd cycle, RH 30.0%): 0.1174%
- ΔM Sorption ([2]; DVS 2nd cycle, RH 30.0%): 0.0704%
- ΔM Desorption ([2]; DVS 2nd cycle, RH 40.0%): 0.1922%
- ΔM Hysteresis ([2]; DVS 2nd cycle, RH 40.0%): 0.1042%
- ΔM Sorption ([2]; DVS 2nd cycle, RH 40.0%): 0.0880%
- ΔM Desorption ([2]; DVS 2nd cycle, RH 50.0%): 0.1849%
- ΔM Hysteresis ([2]; DVS 2nd cycle, RH 50.0%): 0.0880%
- ΔM Sorption ([2]; DVS 2nd cycle, RH 50.0%): 0.0968%
- ΔM Desorption ([2]; DVS 2nd cycle, RH 60.0%): 0.1761%
- ΔM Hysteresis ([2]; DVS 2nd cycle, RH 60.0%): 0.0704%
- ΔM Sorption ([2]; DVS 2nd cycle, RH 60.0%): 0.1057%
- ΔM Desorption ([2]; DVS 2nd cycle, RH 70.0%): 0.1629%
- ΔM Hysteresis ([2]; DVS 2nd cycle, RH 70.0%): 0.0719%
- ΔM Sorption ([2]; DVS 2nd cycle, RH 70.0%): 0.0910%
- ΔM Desorption ([2]; DVS 2nd cycle, RH 80.0%): 0.1350%
- ΔM Hysteresis ([2]; DVS 2nd cycle, RH 80.0%): 0.0616%
- ΔM Sorption ([2]; DVS 2nd cycle, RH 80.0%): 0.0734%
- ΔM Desorption ([2]; DVS 2nd cycle, RH 90.0%): 0.0484%
- ΔM Sorption ([2]; DVS 2nd cycle, RH 90.0%): 0.0484%
- ΔM Sorption ([2]; DVS 3rd cycle (partial), RH 0.0%): 0.1585%
- ΔM Sorption ([2]; DVS 3rd cycle (partial), RH 10.0%): 0.1937%
- ΔM Sorption ([2]; DVS 3rd cycle (partial), RH 20.0%): 0.2113%
- ΔM Sorption ([2]; DVS 3rd cycle (partial), RH 30.0%): 0.2245%
- ΔM Sorption ([2]; DVS 3rd cycle (partial), RH 40.0%): 0.2377%
- ΔM Sorption ([2]; DVS 3rd cycle (partial), RH 50.0%): 0.2465%

Molecule: CN(C)C[C@H]1CCCC[C@]1(O)c1cccc(O)c1.Cl [hydrochloride, (+)-(1R,2R)-3-[2-(dimethylamino)methyl-1-hydroxycyclohexyl]phenol hydrochloride]
- substance passed into the artificial intestinal fluid ([1]; after two to 4 minutes, artificial intestinal juice pH 6.8, 37 °C): ~100%
- solubility thermodynamic ([3]; aqueous with cosolvent or surfactant or cyclodextrin): 1090 mM
- solubility thermodynamic ([3]; pH 1.4, simulated gastric fluid): 582 mM
- solubility thermodynamic ([3]; pH 4.3, aqueous buffer): 666 mM
- solubility thermodynamic ([3]; pH 6.8, aqueous buffer): 698 mM
- solubility thermodynamic ([3]; pH 7.4, aqueous buffer): 867 mM
- solubility thermodynamic ([3]; pH 11, aqueous buffer): 979 mM
- solubility thermodynamic ([3]; water): 983 mM

Molecule: palmitate
- release behaviour in artificial intestinal juice ([1]; Experiments B-1 and B-2): more intensely prolonged release
- release rate compared to the hydrochloride salt [1]: decreased release rates compared to the hydrochloride salt
- ΔM Desorption ([2]; 1st cycle, RH 0.0 %): 0.0000%
- ΔM Desorption ([2]; 1st cycle, RH 10.0 %): 0.0083%
- ΔM Desorption ([2]; 1st cycle, RH 20.0 %): 0.0148%
- ΔM Desorption ([2]; 1st cycle, RH 30.0 %): 0.0234%
- ΔM Desorption ([2]; 1st cycle, RH 40.0 %): 0.0353%
- ΔM Desorption ([2]; 1st cycle, RH 50.0 %): 0.0472%
- ΔM Hysteresis ([2]; 1st cycle, RH 50.0 %): 0.0027%
- ΔM Sorption ([2]; 1st cycle, RH 50.0 %): 0.0445%
- ΔM Desorption ([2]; 1st cycle, RH 60.0 %): 0.0896%
- ΔM Hysteresis ([2]; 1st cycle, RH 60.0 %): 0.0374%
- ΔM Sorption ([2]; 1st cycle, RH 60.0 %): 0.0522%
- ΔM Desorption ([2]; 1st cycle, RH 70.0 %): 0.1139%
- ΔM Hysteresis ([2]; 1st cycle, RH 70.0 %): 0.0412%
- ΔM Sorption ([2]; 1st cycle, RH 70.0 %): 0.0727%
- ΔM Desorption ([2]; 1st cycle, RH 80.0 %): 0.1406%
- ΔM Hysteresis ([2]; 1st cycle, RH 80.0 %): 0.0347%
- ΔM Sorption ([2]; 1st cycle, RH 80.0 %): 0.1059%
- ΔM Desorption ([2]; 1st cycle, RH 90.0 %): 0.1531%
- ΔM Sorption ([2]; 1st cycle, RH 90.0 %): 0.1531%
- ΔM Desorption ([2]; 2nd cycle, RH 0.0 %): 0.0172%
- ΔM Sorption ([2]; 2nd cycle, RH 0.0 %): 0.0000%
- ΔM Desorption ([2]; 2nd cycle, RH 10.0 %): 0.0303%
- ΔM Hysteresis ([2]; 2nd cycle, RH 10.0 %): 0.0202%
- ΔM Sorption ([2]; 2nd cycle, RH 10.0 %): 0.0101%
- ΔM Desorption ([2]; 2nd cycle, RH 20.0 %): 0.0421%
- ΔM Hysteresis ([2]; 2nd cycle, RH 20.0 %): 0.0211%
- ΔM Sorption ([2]; 2nd cycle, RH 20.0 %): 0.0211%
- ΔM Desorption ([2]; 2nd cycle, RH 30.0 %): 0.0552%
- ΔM Hysteresis ([2]; 2nd cycle, RH 30.0 %): 0.0225%
- ΔM Sorption ([2]; 2nd cycle, RH 30.0 %): 0.0326%
- ΔM Desorption ([2]; 2nd cycle, RH 40.0 %): 0.0679%
- ΔM Hysteresis ([2]; 2nd cycle, RH 40.0 %): 0.0237%
- ΔM Sorption ([2]; 2nd cycle, RH 40.0 %): 0.0442%
- ΔM Desorption ([2]; 2nd cycle, RH 50.0 %): 0.0837%
- ΔM Hysteresis ([2]; 2nd cycle, RH 50.0 %): 0.0234%
- ΔM Sorption ([2]; 2nd cycle, RH 50.0 %): 0.0602%
- ΔM Desorption ([2]; 2nd cycle, RH 60.0 %): 0.1344%
- ΔM Hysteresis ([2]; 2nd cycle, RH 60.0 %): 0.0573%
- ΔM Sorption ([2]; 2nd cycle, RH 60.0 %): 0.0771%
- ΔM Desorption ([2]; 2nd cycle, RH 70.0 %): 0.1640%
- ΔM Hysteresis ([2]; 2nd cycle, RH 70.0 %): 0.0739%
- ΔM Sorption ([2]; 2nd cycle, RH 70.0 %): 0.0902%
- ΔM Desorption ([2]; 2nd cycle, RH 80.0 %): 0.1827%
- ΔM Hysteresis ([2]; 2nd cycle, RH 80.0 %): 0.0495%
- ΔM Sorption ([2]; 2nd cycle, RH 80.0 %): 0.1332%
- ΔM Desorption ([2]; 2nd cycle, RH 90.0 %): 0.1771%
- ΔM Sorption ([2]; 2nd cycle, RH 90.0 %): 0.1771%
- ΔM Sorption ([2]; 3rd cycle, RH 0.0 %): 0.0172%
- ΔM Sorption ([2]; 3rd cycle, RH 10.0 %): 0.0231%
- ΔM Sorption ([2]; 3rd cycle, RH 20.0 %): 0.0306%
- ΔM Sorption ([2]; 3rd cycle, RH 30.0 %): 0.0392%
- ΔM Sorption ([2]; 3rd cycle, RH 40.0 %): 0.0498%
- ΔM Sorption ([2]; 3rd cycle, RH 50.0 %): 0.0650%
